Measured values published in paper PMC10893631, “Receptor-based pharmacophore modeling, molecular docking, synthesis and biological evaluation of novel VEGFR-2, FGFR-1, and BRAF multi-kinase inhibitors” (BMC Chemistry, 2024).

How the values were obtained:
Assay in all cases: NCI SRB growth inhibition (single dose 10 µM / five-dose)
Format in all cases: cell-based, human
786–0 = conditions: Homo sapiens
In short: (§1)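 TCA fixation ends the assay for adherent lines; unbound SRB is rinsed off five times with 1% acetic acid. Drug is added from a DMSO concentrate at 400× the maximum final concentration, made up to 2× in gentamicin-containing medium, then halved on addition to wells.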

SK-MEL-2 = conditions: Homo sapiens; SK-MEL-2 (Melanoma), 10 µM; read-out: GI%
In short: as §1

MDA-MB-231/ATCC = conditions: Homo sapiens
In short: as §1

OVCAR-4 = conditions: Homo sapiens
In short: as §1

UACC-257 = conditions: Homo sapiens
In short: as §1

IGROV1 = conditions: Homo sapiens, IGROV-1
In short: as §1

ACHN = conditions: Homo sapiens
In short: as §1

BT-549 = conditions: Homo sapiens
In short: as §1

A549/ATCC = conditions: Homo sapiens
In short: as §1

HCT-15 = conditions: Homo sapiens
In short: as §1

CAKI-1 = conditions: Homo sapiens
In short: as §1

MDA-MB-435 = conditions: Homo sapiens
In short: as §1

NCI/ADR-RES = conditions: Homo sapiens
In short: as §1

SNB-75 = conditions: Homo sapiens; SNB-75 (CNS cancer), 10 µM; read-out: GI%
In short: as §1

KM12 = conditions: Homo sapiens
In short: as §1

HS 578 T = conditions: Homo sapiens
In short: as §1

K-562 = conditions: Homo sapiens, K562
In short: as §1

HCT-116 = conditions: Homo sapiens, HCT-116
In short: as §1

OVCAR-8 = conditions: Homo sapiens
In short: as §1

COLO 205 = conditions: Homo sapiens
In short: as §1

SK-OV-3 = conditions: Homo sapiens
In short: as §1

A498 = conditions: Homo sapiens
In short: as §1

RXF 393 = conditions: Homo sapiens
In short: as §1

MALME-3 M = conditions: Homo sapiens
In short: as §1

CCRF-CEM = conditions: Homo sapiens
In short: as §1

SK-MEL-28 = conditions: Homo sapiens
In short: as §1

Which inhibition at 10 µM (786–0; 786–0 (Renal cancer), 10 µM, read-out: GI%) does the source give for `COc1cccc(C=NNC(=O)c2ccc3[nH]c(-c4ccc(Cl)cc4)nc3c2)c1O` [8r, 2-(4-Chlorophenyl)-N'-(2-hydroxy-3-methoxybenzylidene)-1H-benzo[d]imidazole-5-carbohydrazide] here?
Its inhibition at 10 µM is over 100%.

And the GI50 (786–0; 786–0, Renal cancer, five-dose)?
Its GI50 is 1490 nM.

What about the inhibition at 10 µM (SK-MEL-2) of the same compound?
The inhibition at 10 µM was over 100%.

And the inhibition at 10 µM (MDA-MB-231/ATCC; MDA-MB-231/ATCC (Breast cancer), 10 µM, read-out: GI%)?
Its inhibition at 10 µM is over 100%.

What about the GI50 (MDA-MB-231/ATCC; MDA-MB-231/ATCC, Breast cancer, five-dose) of the same compound?
Its GI50 is 1820 nM.

And the inhibition at 10 µM (OVCAR-4; OVCAR-4 (Ovarian cancer), 10 µM, read-out: GI%)?
The inhibition at 10 µM was over 100%.

And the GI50 (OVCAR-4; OVCAR-4, Ovarian cancer, five-dose)?
The GI50 was 1410 nM.

And the inhibition at 10 µM (UACC-257; UACC-257 (Melanoma), 10 µM, read-out: GI%)?
The inhibition at 10 µM was over 100%.

What about the GI50 (UACC-257; UACC-257, Melanoma, five-dose) of the same compound?
Its GI50 is 2350 nM.

And the inhibition at 10 µM (IGROV1; IGROV1 (Ovarian cancer), 10 µM, read-out: GI%)?
The inhibition at 10 µM was over 100%.

What about the GI50 (IGROV1; IGROV1, Ovarian cancer, five-dose) of the same compound?
Its GI50 is 1250 nM.

And the inhibition at 10 µM (ACHN; ACHN (Renal cancer), 10 µM, read-out: GI%)?
The inhibition at 10 µM was over 100%.

What about the GI50 (ACHN; ACHN, Renal cancer, five-dose) of the same compound?
The GI50 was 2920 nM.

And the inhibition at 10 µM (BT-549; BT-549 (Breast cancer), 10 µM, read-out: GI%)?
The inhibition at 10 µM was over 100%.

And the GI50 (BT-549; BT-549, Breast cancer, five-dose)?
Its GI50 is 1360 nM.

And the inhibition at 10 µM (A549/ATCC; A549/ATCC (Non-small cell lung cancer), 10 µM, read-out: GI%)?
Its inhibition at 10 µM is over 100%.

What about the GI50 (A549/ATCC; A549/ATCC, Non-small cell lung cancer, five-dose) of the same compound?
The GI50 was 3680 nM.

And the inhibition at 10 µM (HCT-15; HCT-15 (Colon cancer), 10 µM, read-out: GI%)?
The inhibition at 10 µM was 95.2%.

And the GI50 (HCT-15; HCT-15, Colon cancer, five-dose)?
The GI50 was 2720 nM.

And the inhibition at 10 µM (CAKI-1; CAKI-1 (Renal cancer), 10 µM, read-out: GI%)?
Its inhibition at 10 µM is over 100%.

And the GI50 (CAKI-1; CAKI-1, Renal cancer, five-dose)?
Its GI50 is 2310 nM.

What about the inhibition at 10 µM (MDA-MB-435; MDA-MB-435 (Melanoma), 10 µM, read-out: GI%) of the same compound?
The inhibition at 10 µM was over 100%.

What about the GI50 (MDA-MB-435; MDA-MB-435, Melanoma, five-dose) of the same compound?
The GI50 was 1810 nM.

And the inhibition at 10 µM (NCI/ADR-RES; NCI/ADR-RES (Ovarian cancer), 10 µM, read-out: GI%)?
The inhibition at 10 µM was 49.3%.

What about the GI50 (NCI/ADR-RES; NCI/ADR-RES, Ovarian cancer, five-dose) of the same compound?
The GI50 was over 100000 nM.

And the inhibition at 10 µM (SNB-75)?
Its inhibition at 10 µM is over 100%.

What about the inhibition at 10 µM (KM12; KM12 (Colon cancer), 10 µM, read-out: GI%) of the same compound?
The inhibition at 10 µM was over 100%.

What about the GI50 (KM12; KM12, Colon cancer, five-dose) of the same compound?
Its GI50 is 1660 nM.

And the inhibition at 10 µM (HS 578 T; HS 578 T (Breast cancer), 10 µM, read-out: GI%)?
Its inhibition at 10 µM is over 100%.

And the GI50 (HS 578 T; HS 578 T, Breast cancer, five-dose)?
The GI50 was 700 nM.

And the inhibition at 10 µM (K-562; K-562 (Leukemia), 10 µM, read-out: GI%)?
Its inhibition at 10 µM is over 100%.

What about the GI50 (K-562; K-562, Leukemia, five-dose) of the same compound?
Its GI50 is 490 nM.

And the GI50 (HCT-116)?
Its GI50 is 1190 nM.

And the inhibition at 10 µM (HCT-116; read-out: GI%)?
The inhibition at 10 µM was over 100%.

And the inhibition at 10 µM (OVCAR-8; OVCAR-8 (Ovarian cancer), 10 µM, read-out: GI%)?
Its inhibition at 10 µM is over 100%.

And the GI50 (OVCAR-8; OVCAR-8, Ovarian cancer, five-dose)?
Its GI50 is 1580 nM.

And the inhibition at 10 µM (COLO 205; COLO 205 (Colon cancer), 10 µM, read-out: GI%)?
Its inhibition at 10 µM is over 100%.

What about the GI50 (COLO 205; COLO 205, Colon cancer, five-dose) of the same compound?
The GI50 was 2330 nM.

What about the inhibition at 10 µM (SK-OV-3; SK-OV-3 (Ovarian cancer), 10 µM, read-out: GI%) of the same compound?
Its inhibition at 10 µM is over 100%.

And the GI50 (SK-OV-3; SK-OV-3, Ovarian cancer, five-dose)?
The GI50 was 2080 nM.

And the inhibition at 10 µM (A498; A498 (Renal cancer), 10 µM, read-out: GI%)?
Its inhibition at 10 µM is over 100%.

What about the GI50 (A498; A498, Renal cancer, five-dose) of the same compound?
The GI50 was 12100 nM.

What about the inhibition at 10 µM (RXF 393; RXF 393 (Renal cancer), 10 µM, read-out: GI%) of the same compound?
Its inhibition at 10 µM is over 100%.

What about the GI50 (RXF 393; RXF 393, Renal cancer, five-dose) of the same compound?
The GI50 was 1410 nM.

What about the inhibition at 10 µM (MALME-3 M; MALME-3 M (Melanoma), 10 µM, read-out: GI%) of the same compound?
Its inhibition at 10 µM is over 100%.

And the GI50 (MALME-3 M; MALME-3 M, Melanoma, five-dose)?
Its GI50 is 1360 nM.

And the inhibition at 10 µM (CCRF-CEM; CCRF-CEM (Leukemia), 10 µM, read-out: GI%)?
Its inhibition at 10 µM is over 100%.

And the GI50 (CCRF-CEM; CCRF-CEM, Leukemia, five-dose)?
The GI50 was 430 nM.

What about the inhibition at 10 µM (SK-MEL-28; SK-MEL-28 (Melanoma), 10 µM, read-out: GI%) of the same compound?
Its inhibition at 10 µM is over 100%.

And the GI50 (SK-MEL-28; SK-MEL-28, Melanoma, five-dose)?
The GI50 was 1620 nM.
